Literature values in PubChem BioAssay AID1259410 (Chemical Carcinogenesis Research Information System (CCRIS), 2018).

Tested on: rodent tumor promotion studies, tumor incidence
Assay: CCRIS tumor promotion studies

## CN(C)CCC=C1c2ccccc2CCc2ccccc21
Carcinogen: 7,12-DIMETHYLBENZ[A]ANTHRACENE, 57-97-6, Doses [Carcinogen]: 20 MG IN 2 ML PEANUT OIL ONCE, Doses [Promoter]: 0, 80 MG/M2 5 D/WK FOR 15 WK BEGINNING POST CARCINOGEN DOSE (STUDY DURATION: 15 WK), Route [Carcinogen]: GAVAGE, Route [Promoter]: INTRAPERITONEAL, Species: RAT, Strain/Sex: SPRAGUE-DAWLEY/FEMALE
  outcome: mammary gland: tumor

## CCCCCCCC/C=C\CCCCCCCC(=O)OC
Carcinogen: 7,12-DIMETHYLBENZ(A)ANTHRACENE, Doses [Carcinogen]: TOP, Route [Carcinogen]: DERMAL, Route [Promoter]: DERMAL, Species: MOUSE, Strain/Sex: MALE,FEMALE
  outcome: integumentary system (skin)

## CC(C(=O)O)c1ccc(-c2ccccc2)c(F)c1 (stereo unspecified)
Carcinogen: N-METHYL-N'-NITRO-N-NITROSOGUANIDINE, 70-25-7, Doses [Carcinogen]: 10 MG ADMINISTERED AS 3 D TREATMENT CYCLES FOLLOWED BY REST PERIODS FOR A TOTAL OF 6 CYCLES (TOTAL DOSE 180 MG DURING 40, Doses [Promoter]: 0.5 MG ADMINISTERED AS 3 D TREATMENT CYCLES FOLLOWED BY REST PERIODS ADMINISTERED CONCURRENTLY WITH CARCINOGEN DURING 40, Route [Carcinogen]: INTRAGASTRIC, Route [Promoter]: GAVAGE, Species: RAT, Strain/Sex: WISTAR/FEMALE
  outcome: stomach: adenocarcinoma; small intestine: adenocarcinoma

## Oc1ccccc1
Carcinogen: 7,12-DIMETHYLBENZ(A)ANTHRACENE, Doses [Carcinogen]: 75 UG, SINGLE DOSE, Doses [Promoter]: 0, 2.5 MG 2/WK FOR 42 WK, Route [Carcinogen]: DERMAL, Route [Promoter]: DERMAL, Species: MOUSE, Strain/Sex: FEMALE
  outcome: integumentary system (skin): carcinoma

## CCCCCCCCCC(=O)OC
Carcinogen: 7,12-DIMETHYLBENZ(A)ANTHRACENE, Doses [Carcinogen]: TOP, Route [Carcinogen]: DERMAL, Route [Promoter]: DERMAL, Species: MOUSE, Strain/Sex: FEMALE
  outcome: integumentary system (skin)

## Oc1c(Cl)c(Cl)c(O)c(Cl)c1Cl
Carcinogen: 7,12-Dimethylbenzanthracene, 57-97-6, Doses [Carcinogen]: 100 ug in 100 ul acetone once at 7 wks of age, Doses [Promoter]: 100, 500 ug in 100 ul acetone 1 wk after carcinogen, 2 times a wk for 20 or 30 wks, Route [Carcinogen]: Dermal, Route [Promoter]: Dermal, Species: Mouse, Strain/Sex: CD-1/Female
  outcome: skin: tumors (dihydrolipoic acid significantly inhibited tumor incidence and mul

## CCCCN(CCCC)N=O
Carcinogen: DIETHYLNITROSAMINE, 55-18-5, N-METHYLNITROSOUREA, 684-93-3, DIHYDROXY-DI-N- PROPYLNITROSAMINE, 53609-64-6, Carcinogen: DIETHYLNITROSAMINE, 55-18-5, N-METHYLNITROSOUREA, 684-93-3, DIHYDROXY-DI-N- PROPYLNITROSAMINE, 53609-64-6, Doses [Carcinogen]: 100 MG/KG IN SALINE AT BEGINNING OF STUDY, 20 MG/KG IN CITRATE BUFFERED SOLUTION ON D 2, 5, 8 AND 11, 0.1% IN DRINKING, Doses [Carcinogen]: 100 MG/KG IN SALINE AT BEGINNING OF STUDY, 20 MG/KG IN CITRATE BUFFERED SOLUTION ON D 2, 5, 8 AND 11, 0.1% IN DRINKING, Doses [Promoter]: 0, 50 PPM IN DRINKING WATER BEGINNING POST SEQUENTIAL CARCINOGEN TREATMENT AND CONTINUING FOR DURATION OF STUDY (STUDY D, Route [Carcinogen]: IP, IP, ORAL, Route [Carcinogen]: IP, IP, ORAL, Route [Promoter]: ORAL, Species: RAT, Strain/Sex: F344/MALE
  outcome: esophagus: papilloma, squamous cell carcinoma; tongue: papilloma
Carcinogen: DIETHYLNITROSAMINE, 55-18-5, N-METHYLNITROSOUREA, 684-93-5, DIHYDROXY-DI-N- PROPYLNITROSAMINE, 53609-64-6, Carcinogen: DIETHYLNITROSAMINE, 55-18-5, N-METHYLNITROSOUREA, 684-93-5, DIHYDROXY-DI-N- PROPYLNITROSAMINE, 53609-64-6, Doses [Carcinogen]: 100 MG/KG IN SALINE AT BEGINNING OF STUDY, 20 MG/KG IN CITRATE BUFFERED SOLUTION ON D 2, 5, 8 AND 11, 0.1% IN DRINKING, Doses [Carcinogen]: 100 MG/KG IN SALINE AT BEGINNING OF STUDY, 20 MG/KG IN CITRATE BUFFERED SOLUTION ON D 2, 5, 8 AND 11, 0.1% IN DRINKING, Doses [Promoter]: 0, 50 PPM IN DRINKING WATER BEGINNING POST SEQUENTIAL CARCINOGEN TREATMENT AND CONTINUING FOR DURATION OF STUDY (STUDY D, Route [Carcinogen]: IP, IP, ORAL, Route [Carcinogen]: IP, IP, ORAL, Route [Promoter]: ORAL, Species: RAT, Strain/Sex: F344/MALE
  outcome: lung: adenoma; esophagus: papilloma

## CC(C)C[C@H](NC(=O)[C@H](Cc1ccccc1)NC(=O)CNC(=O)CNC(=O)[C@@H](N)Cc1ccc(O)cc1)C(=O)O
Carcinogen: N-METHYL-N'-NITRO-N-NITROSOGUANIDINE, 70-25-7, Doses [Carcinogen]: 25 UG/ML IN DRINKING WATER FOR 25 WK, Doses [Promoter]: 0, 20 UG/KG 1/2 D BEGINNING POST CARCINOGEN TREATMENT AND CONTINUING FOR THE DURATION OF STUDY (STUDY DURATION: 52 WK), Route [Carcinogen]: ORAL, Route [Promoter]: SUBCUTANEOUS, Species: RAT, Strain/Sex: WISTAR/MALE
  outcome: stomach: adenocarcinoma

## NC(CO)C(=O)O (stereo unspecified)
Carcinogen: N-ETHYL-N-HYDROXYETHYLNITROSAMINE, 13147-25-6, Doses [Carcinogen]: 500 PPM IN DIET FOR 2 WK, Doses [Promoter]: 0, 100 MG/100 G BW IN 2 ML 5% SALINE GIVEN 1/2 WK FOR 3 DOSES BEGINNING 1 WK POST CARCINOGEN (STUDY DURATION: 32 WK), Route [Carcinogen]: ORAL, Route [Promoter]: SUBCUTANEOUS, Species: RAT, Strain/Sex: WISTAR/MALE
  outcome: kidney: dark cell tumor, clear cell tumor, adenocarcinoma
Carcinogen: N-ETHYL-N-HYDROXYETHYLNITROSAMINE, 13147-25-6, Doses [Carcinogen]: 1000 PPM IN DIET FOR 2 WK, Doses [Promoter]: 0, 100 MG/100 G BW IN 2 ML 5% SALINE GIVEN 1/2 WK FOR 3 DOSES BEGINNING 1 WK POST CARCINOGEN (STUDY DURATION: 32 WK), Route [Carcinogen]: ORAL, Route [Promoter]: SUBCUTANEOUS, Species: RAT, Strain/Sex: WISTAR/MALE
  outcome: kidney: dark cell tumor, clear cell tumor, adenocarcinoma

## Cn1c(N)nc2c3cccnc3ccc21
Carcinogen: Diethyl nitrosamine (DEN), 55-18-5 and dimethylhydrazine (DMH), 30260-66-3, Carcinogen: Diethyl nitrosamine (DEN), 55-18-5 and dimethylhydrazine (DMH), 30260-66-3, Doses [Carcinogen]: DEN, 200 mg/kg once at -3 days, DMH, 40 mg/kg 4 injections between day 0 and wk 2, Doses [Promoter]: 0, 300 ppm in diet from week 2 to 29, study duration 29 wk, Doses [Promoter]: 0, 300 ppm in diet from week 2 to 29, study duration 29 wk, Route [Carcinogen]: Intraperitoneal (DEN) and subcutaneous (DMH), Route [Promoter]: Oral, Species: Rat, Strain/Sex: F344/Du Crj (20/group with 11 survivors)
  outcome: liver: hepatocellular adenoma and carcinoma. colon adenoma and carcinoma. signif

## CCCCCCCCCC(=O)O[C@@]12C[C@@H](C)[C@@]3(O)[C@@H](C=C(CO)C[C@]4(O)C(=O)C(C)=C[C@@H]34)[C@@H]1C2(C)C
Carcinogen: 7,12-DIMETHYLBENZ[A]ANTHRACENE, 57-97-6, Doses [Carcinogen]: 100 NMOL ONCE, Doses [Promoter]: 0, 40 NMOL 2/WK FOR 48 WK (STUDY DURATION: 48 WK), Route [Carcinogen]: DERMAL, Route [Promoter]: DERMAL, Species: MOUSE, Strain/Sex: NMRI
  outcome: skin: tumor

## CCCCCCCCCC(=O)OC[C@H](CO)OC(=O)CCCCCCCCC
Carcinogen: 7,12-DIMETHYLBENZ[A]ANTHRACENE, 57-97-6, Doses [Carcinogen]: 200 NMOL IN 200 µL OF ACETONE ONCE, Doses [Promoter]: 0, 2, 5 UMOL IN 20 µL ACETONE 2/D 5 D/WK FOR 20 WK BEGINNING 1 WK AFTER LAST CARCINOGEN DOSE (STUDY DURATION: 24 WK), Doses [Promoter]: 0, 2, 5 UMOL IN 20 µL ACETONE 2/D 5 D/WK FOR 20 WK BEGINNING 1 WK AFTER LAST CARCINOGEN DOSE (STUDY DURATION: 24 WK), Route [Carcinogen]: DERMAL, Route [Promoter]: DERMAL, Species: MOUSE, Strain/Sex: CD-1/FEMALE
  outcome: skin: papilloma

## COc1ccc(N)cc1N
Carcinogen: N-BIS(2-HYDROXYPROPYL)NITROSAMINE, 53609-64-6, Doses [Carcinogen]: 210 MG/100 G, ONCE (STUDY DURATION: 20 WK), Doses [Promoter]: 0, 0.5% IN DIET FOR 19 WK (STUDY DURATION: 20 WK), Route [Carcinogen]: INTRAPERITONEAL, Route [Promoter]: ORAL, Species: RAT, Strain/Sex: WISTAR/MALE
  outcome: thyroid gland: carcinoma, adenoma

## NC[C@@H]1O[C@H](O[C@H]2[C@@H](O)[C@H](O[C@@H]3[C@@H](O)[C@H](N)C[C@H](N)[C@H]3O[C@H]3O[C@H](CN)[C@@H](O)[C@H](O)[C@H]3N)O[C@@H]2CO)[C@H](N)[C@@H](O)[C@@H]1O
Carcinogen: AZOXYMETHANE, 25843-45-2, Doses [Carcinogen]: 8 MG/KG 1/WK FOR 8 WK, Doses [Promoter]: 0, 100, 200 PPM IN DRINKING WATER BEGINNING 2 WK PRIOR TO CARCINOGEN TREATMENT AND CONTINUING FOR DURATION OF STUDY (STU, Doses [Promoter]: 0, 100, 200 PPM IN DRINKING WATER BEGINNING 2 WK PRIOR TO CARCINOGEN TREATMENT AND CONTINUING FOR DURATION OF STUDY (STU, Route [Carcinogen]: SUBCUTANEOUS, Route [Promoter]: ORAL, Species: RAT, Strain/Sex: F344/FEMALE
  outcome: colon: adenocarcinoma
